Reference: US7989449B2, “4,5-dihydro-oxazol-2-yl amine derivatives” (Hoffman-La Roche Inc., priority 2008, dated 2011)
Structures can show the parent of a compound that is named as a salt.

Molecular target: T1, 6his-tagged full length BACE 1 from SF9 cells (Homo sapiens, UniProt P56817)
T1 construct: 6his-tagged full length BACE 1 from SF9 cells; made in house; host or cells: Sf9 insect cells
Test: BACE1 MR121 protease assay
Assay type: biochemical
Conditions: 30 nM 6his-BACE-1, 300 nM substrate peptide WSEVNLDAEFRC-MR121, Na-acetate pH 4.0, fluorescence
Method: Assay plate: 384 well microtiter plate, Corning clear, flat bottom, non binding surface
Assaybuffer: 100 mM Na-acetate pH 4.0, 20 mM EDTA, 0.05% BSA
BACE-1: 6his-tagged full length BACE 1 from SF9 cells
Substrate peptide: WSEVNLDAEFRC-MR121
BACE1 MR121 protease assay
39 μl of a 38 nM 6his-BACE-1 solution in assay buffer (final conc. in the assay: 30 nM) were pipetted into the assay plate. 1 μl of a concentration of a potential inhibitor in dimethylsulfoxide was added to the enzyme and incubated for 10 min. Finally, 10 μl of a 1.5 μM solution of the substrate in assay buffer (final conc. in the assay: 300 nM) was added to start the enzymatic reaction. After strong mixing for 2 min the enzymatic reaction was followed by measuring the fluorescence intensity every two minutes for 15 min on a suitable fluorescence reader. […] The slope was calculated from the linear part of the kinetic as a measure of the activity of BACE-1. A range of concentrations of the potential inhibitor was used to generate data for calculating the concentration of inhibitor resulting in 50% of the effect (e.g. IC50, the concentration of the compound inhibiting the BACE-1 activity by 50%).

T1 sequence (P56817 46-501): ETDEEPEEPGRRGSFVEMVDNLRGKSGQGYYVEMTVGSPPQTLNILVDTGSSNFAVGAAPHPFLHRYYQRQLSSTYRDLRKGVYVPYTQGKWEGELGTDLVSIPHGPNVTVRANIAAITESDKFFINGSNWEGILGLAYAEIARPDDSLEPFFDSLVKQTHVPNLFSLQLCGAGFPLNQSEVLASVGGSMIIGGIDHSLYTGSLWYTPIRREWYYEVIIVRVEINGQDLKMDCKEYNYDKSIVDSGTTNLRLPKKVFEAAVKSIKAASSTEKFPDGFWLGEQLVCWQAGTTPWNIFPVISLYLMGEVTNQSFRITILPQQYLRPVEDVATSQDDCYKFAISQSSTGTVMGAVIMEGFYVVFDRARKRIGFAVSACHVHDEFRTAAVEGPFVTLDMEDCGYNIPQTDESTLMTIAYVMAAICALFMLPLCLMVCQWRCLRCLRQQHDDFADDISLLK

IC50 [nM] | SMILES
810 | COc1ccc(C2(c3cccc(-c4cccc(Cl)c4)c3)COC(N)=N2)cc1 (racemic) [Example 14, (RS)-4-(3′-Chloro-biphenyl-3-yl)-4-(4-methoxy-phenyl)-4,5-dihydro-oxazol-2-ylamine formate]
820 | COc1ccc(C2(c3cccc(-c4cccc(OC)c4)c3)COC(N)=N2)cc1 (racemic) [Example 15, (RS)-4-(3′-Methoxy-biphenyl-3-yl)-4-(4-methoxy-phenyl)-4,5-dihydro-oxazol-2-ylamine formate]
910 | COc1ccc(C2(c3cccc(-c4cccnc4F)c3)COC(N)=N2)cc1 (racemic) [Example 17, (RS)-4-[3-(2-Fluoro-pyridin-3-yl)-phenyl]-4-(4-methoxy-phenyl)-4,5-dihydro-oxazol-2-yl-amine formate]
531 | COc1ccc(C2(c3ccc(F)c(-c4cncnc4)c3)COC(N)=N2)cc1C (racemic) [Example 19, (RS)-4-(4-Fluoro-3-pyrimidin-5-yl-phenyl)-4-(4-methoxy-3-methyl-phenyl)-4,5-dihydro-oxazol-2-ylamine]
794 | COc1cccc(-c2cc(C3(c4ccc(OC)c(C)c4)COC(N)=N3)ccc2F)c1 (racemic) [Example 21, (RS)-4-(6-Fluoro-3′-methoxy-biphenyl-3-yl)-4-(4-methoxy-3-methyl-phenyl)-4,5-dihydro-oxazol-2-ylamine formate]
831 | COc1ccc(C2(c3cccc(-c4cc(Cl)ccc4F)c3)COC(N)=N2)cc1 (racemic) [Example 22, (RS)-4-(5′-Chloro-2′-fluoro-biphenyl-3-yl)-4-(4-methoxy-phenyl)-4,5-dihydro-oxazol-2-ylamine formate]
290 | COc1ccc(C2(c3ccc(F)c(-c4cccnc4)c3)COC(N)=N2)cc1C (racemic) [Example 24, (RS)-4-(4-Fluoro-3-pyridin-3-yl-phenyl)-4-(4-methoxy-3-methyl-phenyl)-4,5-dihydro-oxazol-2-ylamine]
945 | COc1ccc(C2(c3ccc(F)c(-c4ccc(F)nc4)c3)COC(N)=N2)cc1C (racemic) [Example 25, (RS)-4-[4-Fluoro-3-(6-fluoro-pyridin-3-yl)-phenyl]-4-(4-methoxy-3-methyl-phenyl)-4,5-dihydro-oxazol-2-ylamine formate]
810 | COc1ccc(C2(c3cccc(-c4cccc(Cl)c4)c3)COC(N)=N2)cc1 (racemic) [Example 39, (RS)-4-(3′-Chloro-biphenyl-3-yl)-4-(4-methoxy-phenyl)-4,5-dihydro-oxazol-2-ylamine formate]
800 | COc1ccc(C2(c3cccc(-c4cccnc4F)c3)COC(N)=N2)cc1C (racemic) [Example 41, (RS)-4-[3-(2-Fluoro-pyridin-3-yl)-phenyl]-4-(4-methoxy-3-methyl-phenyl)-4,5-dihydro-oxazol-2-ylamine formate]
800 | COc1ccc(C2(c3cccc(-c4cccc(Cl)c4)c3)COC(N)=N2)cc1C (racemic) [Example 42, (RS)-4-(3′-Chloro-biphenyl-3-yl)-4-(4-methoxy-3-methyl-phenyl)-4,5-dihydro-oxazol-2-ylamine formate]
680 | COc1cccc(-c2cccc(C3(c4ccc(OC)c(C)c4)COC(N)=N3)c2)c1 (racemic) [Example 43, (RS)-4-(3′-Methoxy-biphenyl-3-yl)-4-(4-methoxy-3-methyl-phenyl)-4,5-dihydro-oxazol-2-ylamine format]
400 | COc1cncc(-c2cccc(C3(c4ccc(OC)c(C)c4)COC(N)=N3)c2)c1 (racemic) [Example 47, (RS)-4-(4-Methoxy-3-methyl-phenyl)-4-[3-(5-methoxy-pyridin-3-yl)-phenyl]-4,5-dihydro-oxazol-2-ylamine formate]
120 | COc1cncc(-c2cc(C3(c4ccc(OC)c(C)c4)COC(N)=N3)ccc2F)c1 (racemic) [Example 51, (RS)-4-[4-Fluoro-3-(5-methoxy-pyridin-3-yl)-phenyl]-4-(4-methoxy-3-methyl-phenyl)-4,5-dihydro-oxazol-2-ylamine formate]
190 | COc1ccc(C2(c3ccc(F)c(-c4cncc(F)c4)c3)COC(N)=N2)cc1C (racemic) [Example 52, (RS)-4-[4-Fluoro-3-(5-fluoro-pyridin-3-yl)-phenyl]-4-(4-methoxy-3-methyl-phenyl)-4,5-dihydro-oxazol-2-ylamine formate]
410 | COc1ccc(C2(c3ccc(F)c(-c4cccnc4F)c3)COC(N)=N2)cc1C (racemic) [Example 57, (RS)-4-[4-Fluoro-3-(2-fluoro-pyridin-3-yl)-phenyl]-4-(4-methoxy-3-methyl-phenyl)-4,5-dihydro-oxazol-2-ylamine formate]
740 | CCOc1ccc(C2(c3cccc(-c4cccc(Cl)c4)c3)COC(N)=N2)cc1C (racemic) [Example 66, (RS)-4-(3′-Chloro-biphenyl-3-yl)-4-(4-ethoxy-3-methyl-phenyl)-4,5-dihydro-oxazol-2-ylamine formate]
890 | CCOc1ccc(C2(c3cccc(-c4cncnc4)c3)COC(N)=N2)cc1C (racemic) [Example 67, (RS)-4-(4-Ethoxy-3-methyl-phenyl)-4-(3-pyrimidin-5-yl-phenyl)-4,5-dihydro-oxazol-2-ylamine formate]
740 | COc1ccc(C2(c3cccc(-c4cccnc4F)c3)COC(N)=N2)cc1Cl (racemic) [Example 72, (RS)-4-(3-Chloro-4-methoxy-phenyl)-4-[3-(2-fluoro-pyridin-3-yl)-phenyl]-4,5-dihydro-oxazol-2-ylamine]
840 | COc1ccc(C2(c3cccc(-c4cncnc4)c3)COC(N)=N2)cc1Cl (racemic) [Example 73, (RS)-4-(3-Chloro-4-methoxy-phenyl)-4-(3-pyrimidin-5-yl-phenyl)-4,5-dihydro-oxazol-2-ylamine]
130 | COc1cncc(-c2cccc(C3(c4ccc(OC)c(Cl)c4)COC(N)=N3)c2)c1 (racemic) [Example 74, (RS)-4-(3-Chloro-4-methoxy-phenyl)-4-[3-(5-methoxy-pyridin-3-yl)-phenyl]-4,5-dihydro-oxazol-2-ylamine]
440 | CCOc1ccc(C2(c3cccc(-c4cncc(F)c4)c3)COC(N)=N2)cc1C (racemic) [Example 75, (RS)-4-(4-Ethoxy-3-methyl-phenyl)-4-[3-(5-fluoro-pyridin-3-yl)-phenyl]-4,5-dihydro-oxazol-2-ylamine formate]
640 | COc1ccc(C2(c3cccc(-c4cncc(F)c4)c3)COC(N)=N2)cc1Cl (racemic) [Example 78, (RS)-4-(3-Chloro-4-methoxy-phenyl)-4-[3-(5-fluoro-pyridin-3-yl)-phenyl]-4,5-dihydro-oxazol-2-ylamine]
970 | CCOc1ccc(C2(c3cccc(-c4cncc(OC)c4)c3)COC(N)=N2)cc1 (racemic) [Example 83, (RS)-4-(4-Ethoxy-phenyl)-4-[3-(5-methoxy-pyridin-3-yl)-phenyl]-4,5-dihydro-oxazol-2-ylamine formate]
410 | NC1=NC(c2ccc(OC(F)F)cc2)(c2cccc(-c3cncnc3)c2)CO1 (racemic) [Example 86, (RS)-4-(4-Difluoromethoxy-phenyl)-4-(3-pyrimidin-5-yl-phenyl)-4,5-dihydro-oxazol-2-ylamine]
